Reference: article PMC11811597, “Phenomics‐Based Discovery of Novel Orthosteric Choline Kinase Inhibitors” (Angewandte Chemie (International Ed. in English), 2025)

Assays:
Assay in all cases: Competitive affinity-based chemoproteomics (UNC0965 matrix), MCF7 lysate
Type in all cases: binding
[1] = molecular target: T1, TUBD1 (Homo sapiens, UniProt Q9UJT1); conditions: 20 μM competitor, n=2
T1 construct: endogenous in cells; host or cells: MCF7 whole cell lysate
Protocol: (§1) A-366 and UNC0638 were purchased from Tocris. ARIAD and V-11-07-11 were purchased from Wuxi Apptec. UNC0737 and UNC0965 were synthesised as previously described.[1] […]
(§2) #35050061). Cells were maintained at 37 °C in a humidified 5% CO2 atmosphere. […]
(§3) Chemical Proteomics Drug Pulldown
(§4) For lysate generation MCF7 cells were grown until approximately 80% confluency before being pelleted and washed with PBS. Cell pellets were subsequently lysed by addition of Buffer A (50 mM Tris pH 7.5, 0. 8% v/v NP-40, 5% v/v glycerol, 1.5 mM MgCl2, 100 mM NaCl, 25 mM NaF, 1 mM Na3VO4, 1 mM PMSF, 1 mM DTT, 10 μg mL−1 TLCK, 1 μg mL−1 Leupeptin, 1 μg mL−1 Aprotinin, 1 μg mL−1 soy bean trypsin) as previously described.[2]
(§5) For each pulldown condition, UNC0965 was coupled to 100 μL of UltraLink Immobilized Streptavidin Plus bead slurry (50% in isopropanol, GE Healthcare) to generate the affinity matrix as previously […]
(§6) described.[2] Lysates were precleared with bead slurry (100 μL) for 30 min at 4 °C and then treated with UNC0638 or UNC0737 (20 μM) or DMSO control for 30 min at 4 °C followed by incubation with affinity matrix for 2 h at 4 °C. Affinity matrices were washed with buffer A (5 mL) and proteins eluted with 100 μL of 2x Laemmli sample buffer, 100 mM DTT, in PBS and heating for 10 min at 90 °C.
(§7) Eluents (70 µL) were diluted in 0.1 M Tris (pH 7.8) to 200 µL, reduced with 5 mM DTT for 30 min at RT, and alkylated with 20 mM iodoacetamide for 30 min at RT in the dark. Proteins were precipitated by sequential addition of MeOH (600 µL), CHCl3 (150 µL) and H2O (450 µL), pelleted (17,000 × g, 5 min), washed with further MeOH (2 × 600 µL), and re-pelleted. Air dried pellets were resuspended in 50 μL 6 M urea (pH 7.8) by vortexing and then diluted with 250 μL H2O before adding 1 µg trypsin for overnight incubation at 37 °C. The digests were acidified with FA (1% v/v final concentration), desalted using SOLA HRP SPE Cartridges (Thermo Fisher), eluted with 69% v/v MeCN, 0.1% v/v FA in H2O (600 μL) and dried in vacuo. Dried peptides were stored at -20 °C before resuspension in 2% v/v MeCN, 0.1% v/v FA in H2O (20 μL) for LC-MS/MS analysis.
(§8) LC-MS/MS Data Acquisition
(§9) Digested samples were analysed by nano-UPLC–MS/MS using a Dionex Ultimate 3000 nano UPLC fitted with an EASY spray column (75 μm × 500 mm, 2 μm particle size, Thermo Scientific), coupled to an Orbitrap Q Exactive instrument. A 60 min gradient of 0.1% (v/v) formic acid in 5 % (v/v) DMSO to 0.1% (v/v) formic acid with 35% (v/v) acetonitrile in 5 % (v/v) DMSO at a flow rate of 250 nL min−1 was used. The instrument was operated in a data-dependant mode, with survey scans acquired at a resolution of 70,000 at 200 m/z and the 15 most abundant precursors selected for HCD fragmentation with an AGC target of […] ions.
(§10) Raw data was processed using MaxQuant[3] version 2.0.1.0 and the reference complete human proteome FASTA file (UniProt, downloaded 05.08.21). Label Free Quantification (LFQ) and Match Between Runs were selected; Cysteine carbamidomethylation was selected as a fixed modification, and methionine oxidation and asparagine deamidation as variable modifications. Default settings for identification and quantification were used. Specifically, a minimum peptide length of 7, a maximum of 2 missed cleavage sites, and a maximum of 5 labelled amino acids per peptide were allowed.
(§11) Through selection of the ‘trypsin/P’ general setting, peptide bond cleavage at arginine or lysine (followed by any amino acid) was considered during in silico digest of the reference proteome. The allowed precursor and fragment ion mass tolerances were 4.5 ppm and 20 ppm, respectively. Peptides and proteins were identified utilizing a 0.01 false discovery rate, with “unique and razor peptides” […]
(§12) mode selected for both identification and quantification of proteins (razor peptides are uniquely assigned to protein groups and not to individual proteins). At least 1 razor + unique peptides were required for valid quantification. […]

[2] = molecular target: T2, PRCP (Homo sapiens, UniProt P42785); conditions: 20 μM competitor, n=2
T2 construct: endogenous in cells; host or cells: MCF7 whole cell lysate
Protocol: as §1, §2, §3, §4, §5, §6, §7, §8, §9, §10, §11, §12

[3] = molecular target: T3, EHMT1 (GLP) (Homo sapiens, UniProt Q9H9B1); conditions: MCF7 lysates, 20 μM competitor
T3 construct: endogenous in cells; host or cells: MCF7 whole cell lysate
Protocol: as §1, §2, §3, §4, §5, §6, §7, §8, §9, §10, §11, §12

T1 sequence (Q9UJT1 whole entry): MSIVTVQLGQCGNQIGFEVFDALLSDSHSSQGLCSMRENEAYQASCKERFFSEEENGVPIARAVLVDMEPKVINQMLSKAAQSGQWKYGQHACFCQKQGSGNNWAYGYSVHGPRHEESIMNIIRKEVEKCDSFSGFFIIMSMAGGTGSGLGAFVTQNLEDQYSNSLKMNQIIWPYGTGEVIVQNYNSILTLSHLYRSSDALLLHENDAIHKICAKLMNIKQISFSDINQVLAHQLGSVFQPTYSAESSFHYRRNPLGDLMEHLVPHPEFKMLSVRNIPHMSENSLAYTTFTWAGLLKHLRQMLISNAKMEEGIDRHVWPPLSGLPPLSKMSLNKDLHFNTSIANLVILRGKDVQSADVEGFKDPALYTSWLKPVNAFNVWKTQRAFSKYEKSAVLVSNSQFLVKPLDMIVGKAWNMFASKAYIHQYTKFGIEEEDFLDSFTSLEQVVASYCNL
T3 sequence (Q9H9B1 whole entry): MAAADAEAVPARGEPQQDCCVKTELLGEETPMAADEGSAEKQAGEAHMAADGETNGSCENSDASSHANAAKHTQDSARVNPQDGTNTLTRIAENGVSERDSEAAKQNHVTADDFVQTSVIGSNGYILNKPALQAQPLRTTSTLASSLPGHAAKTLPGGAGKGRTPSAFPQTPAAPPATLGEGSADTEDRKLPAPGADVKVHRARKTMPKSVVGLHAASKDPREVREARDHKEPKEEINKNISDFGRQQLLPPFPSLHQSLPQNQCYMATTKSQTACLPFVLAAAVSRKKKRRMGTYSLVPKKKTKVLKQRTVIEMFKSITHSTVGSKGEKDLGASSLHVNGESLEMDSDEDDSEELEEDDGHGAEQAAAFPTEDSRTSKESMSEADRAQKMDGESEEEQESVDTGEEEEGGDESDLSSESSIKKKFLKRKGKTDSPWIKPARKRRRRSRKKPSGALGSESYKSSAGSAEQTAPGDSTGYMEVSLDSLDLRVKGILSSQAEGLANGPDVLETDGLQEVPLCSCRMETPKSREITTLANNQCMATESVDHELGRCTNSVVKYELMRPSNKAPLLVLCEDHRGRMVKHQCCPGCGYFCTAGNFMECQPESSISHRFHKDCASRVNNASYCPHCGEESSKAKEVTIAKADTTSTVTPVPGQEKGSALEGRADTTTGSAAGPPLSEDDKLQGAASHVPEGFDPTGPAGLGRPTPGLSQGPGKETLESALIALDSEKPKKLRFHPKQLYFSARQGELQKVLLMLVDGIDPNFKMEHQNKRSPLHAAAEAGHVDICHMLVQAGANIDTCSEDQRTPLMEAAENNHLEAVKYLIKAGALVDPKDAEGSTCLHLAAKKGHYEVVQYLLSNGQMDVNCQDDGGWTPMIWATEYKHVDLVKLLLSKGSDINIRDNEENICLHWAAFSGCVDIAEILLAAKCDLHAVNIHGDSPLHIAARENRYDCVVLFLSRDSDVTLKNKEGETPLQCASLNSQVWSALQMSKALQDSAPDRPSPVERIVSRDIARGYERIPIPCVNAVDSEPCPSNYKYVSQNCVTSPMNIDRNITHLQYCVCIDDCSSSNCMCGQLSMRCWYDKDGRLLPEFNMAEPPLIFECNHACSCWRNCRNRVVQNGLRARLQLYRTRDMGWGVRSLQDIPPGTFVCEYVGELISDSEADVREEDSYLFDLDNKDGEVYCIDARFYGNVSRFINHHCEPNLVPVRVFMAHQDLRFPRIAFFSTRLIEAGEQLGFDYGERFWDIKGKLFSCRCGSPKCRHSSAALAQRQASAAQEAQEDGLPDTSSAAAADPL
T2 sequence (P42785 46-496): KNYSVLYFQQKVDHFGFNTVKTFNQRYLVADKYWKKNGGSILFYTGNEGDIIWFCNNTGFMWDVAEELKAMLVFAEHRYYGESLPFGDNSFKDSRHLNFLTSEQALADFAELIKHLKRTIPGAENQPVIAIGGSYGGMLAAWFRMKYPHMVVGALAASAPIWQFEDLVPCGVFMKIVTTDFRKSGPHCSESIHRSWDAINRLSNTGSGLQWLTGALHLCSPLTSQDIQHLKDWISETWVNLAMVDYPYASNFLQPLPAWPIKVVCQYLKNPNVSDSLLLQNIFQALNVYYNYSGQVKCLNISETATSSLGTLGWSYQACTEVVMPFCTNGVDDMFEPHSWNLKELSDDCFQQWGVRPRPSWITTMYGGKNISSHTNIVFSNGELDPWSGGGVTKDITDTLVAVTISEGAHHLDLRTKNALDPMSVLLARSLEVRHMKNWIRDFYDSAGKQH

Compound | FC vs DMSO (log2 competition), TUBD1 [1] | FC vs DMSO (log2 competition), PRCP [2] | competition for EHMT1 (GLP) binding to affinity matrix [3]
COc1cc2c(NC3CCN(C(C)C)CC3)nc(C3CCCCC3)nc2cc1OCCCN1CCCC1 [UNC0638] | -2.877 | -2.542 | strong enrichment and competition
COc1cc2c(N(C)C3CCN(C(C)C)CC3)nc(C3CCCCC3)nc2cc1OCCCN1CCCC1 [UNC0737] | -0.7809 | 0.1604 | did not ablate binding
